Test [1] concerns the target T1, FOLR2 (Homo sapiens, UniProt P14207).
T1 construct: purchased Acro Biosystems FO2-H5223-100 μg
Nature of the test: SPR binding kinetics of compounds to folate receptor (FOLR2). The following applies: immobilized FOLR2, compound 3.125-100 nM. The protocol: A Biacore 8K+ was used to measure the association and dissociation rates of example compounds to FOLR2 (Acro Biosystems, Cat: FO2-H5223-100 μg). Briefly, FOLR2 was reconstituted according to the manufacture's instructions to 200 μg/mL. Both the active and reference surfaces of a Cytiva CM5 Series S Sensor Chip were activated with a 1:1 mixture of 400 mM EDC and 100 mM NHS for 420 s at 10 μL/min. 25 μg/mL FOLR2 diluted in Sodium Acetate pH 5.5 was injected on the active channel (Flow Cell 2) for 420 s at 10p/min. Both the reference and active surfaces were then capped with 1M ethanolamine, pH 8.5 for 420 s, achieving an immobilization level of ˜4200 RU. Example compounds were serially diluted 1:1 in running buffer (10 mM HEPES, 150 mM NaCl, 0.05% T20, pH 7.5, 2% DMSO) from 100 nM to 3.125 nM and flowed over the active and reference surfaces for 120 s, and then allowed to dissociate in running buffer for 600 s, at 30 uL/min. The FOLR2 immobilized active surface and the reference surface were regenerated with a 30 s pulse of Sodium Acetate pH 5.5 at 30 μL/min. Sensorgrams were solvent corrected, double-referenced, and the data fitted and analyzed in Biacore Insight Evaluation Software Version 3.0.11.15423.
FIG. 1 illustrates the SPR sensorgrams for various concentrations of compound I-21 (3.125 nM to 100 nM) to folate receptor 2 (FOLR2), illustrating 1:1 binding.
A general note: Surface plasmon resonance follows binding to a sensor surface in real time, without labels.

Test [2] deals with T2, TNFα trimer (Homo sapiens, UniProt P01375).
T2 construct: Ligand MW (Da) 53729.8; fused on or other part: Three copies of soluble TNF-alpha joined by linkers into one polypeptide; The protein is biotinylated and captured on immobilised streptavidin
T2 sequence (P01375 88-233 limits assumed): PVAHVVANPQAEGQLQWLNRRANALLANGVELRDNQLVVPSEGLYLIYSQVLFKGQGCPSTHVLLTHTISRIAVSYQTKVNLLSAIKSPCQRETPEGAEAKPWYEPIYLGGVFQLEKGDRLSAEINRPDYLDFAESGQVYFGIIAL
The test can be described thus: SPR binding kinetics of compounds to TNFα trimer (single-cycle kinetics). The following applies: for kon: read-out: ka. The protocol: Streptavidin 100 μg/mL Streptavidin (Invitrogen Cat #:434302) diluted in 10 mM sodium acetate, pH 4.5) was immobilized to both the reference and active surfaces as described in Example 51. The surfaces were conditioned with three injections of running Buffer (10 mM HEPES, 150 mM NaCl, 0.05% T20, pH 7.5, 2% DMSO) at a flow rate of 10 μL/min, Contact time: 60 s. Flow rate: 10 μL/min. The active surface was treated with biotinylated linked TNFα timer 20 μg/mL diluted in running buffer at a flow rate of 5 μL/min contact time: 600 s, yielding a final response of ˜3000 RU. Example compounds were then serially diluted 1:1 in running buffer (10 mM HEPES, 150 mM NaCl, 0.05% T20, pH 7.5, 2% DMSO) from 30 uM to 937.5 nM and flowed over the active and reference surfaces from lowest concentration to greatest concentration in the single-cycle kinetics format, and then allowed to dissociate in running buffer for 7200 s, at 30 μL/min. Sensorgrams were solvent corrected, double-referenced, and the data fitted and analyzed in Biacore Insight Evaluation Software Version 3.0.11.15423.

In test [3] the target is T3, TNFα (Homo sapiens, UniProt P01375+P14207).
T3 construct: made in house
T3 sequence (P01375 77-233 limits assumed, species assumed): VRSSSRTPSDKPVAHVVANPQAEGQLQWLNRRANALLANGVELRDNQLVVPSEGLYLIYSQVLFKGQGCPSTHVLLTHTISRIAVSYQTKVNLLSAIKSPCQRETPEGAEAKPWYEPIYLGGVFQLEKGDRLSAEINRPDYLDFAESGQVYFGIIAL
T3 sequence (P14207 17-230 limits assumed, species assumed): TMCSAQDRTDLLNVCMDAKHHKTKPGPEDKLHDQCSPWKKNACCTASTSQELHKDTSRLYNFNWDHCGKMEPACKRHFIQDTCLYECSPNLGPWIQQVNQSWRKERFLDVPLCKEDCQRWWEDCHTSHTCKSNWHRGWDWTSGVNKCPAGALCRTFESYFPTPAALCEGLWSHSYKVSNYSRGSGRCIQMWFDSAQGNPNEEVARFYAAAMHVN
Nature of the test: Compound mediated uptake of TNFα-pHrodo in THP-1 cells (flow cytometry). It is filed as cell-based. Particulars: 125 nM-20 μM, 24 hrs, FIG. 4. The protocol: THP-1 cells, a monocytic leukemia cell line that endogenously express folate receptor beta, were used as a model system to measure example compound stimulated uptake of in-house produced TNFα conjugated to the pH sensitive fluorescent dye pHrodo green (ThermoFisher Scientific #P35369).
THP-1 cells were maintained in RPMI (Gibco #61870143) with 10% v/v FBS (VWR #89510-188) with 2 mM L-alanyl-L-glutamine dipeptide, 100 units/ml penicillin and 100 ug/ml streptomycin (Gibco #15140148). Cells were pelleted, resuspended in folate-free RPMI (Gibco #27016021) and seeded at 50,000 cells per well of a 96 well plate. Example compound was added to each well as a log 2 dilution series ranging from 20 μM to 125 nM final concentration. Cells were incubated for 24 hrs and washed/resuspended in phosphate buffered saline (pH 7.4) with 1% w/v BSA. Uptake was measured using a Novocyte Advanteon Flow Cytometer (Agilent Technologies) with the […] and FITC detection configuration.
Background: In flow cytometry, cells or beads pass a laser one at a time.

The target in test [4] is T3, TNFα. The test can be described thus: Compound mediated degradation of TNFα in THP-1 cells (pulse-chase, TNFα-biotin blot). It is filed as cell-based. Particulars: PMA differentiated THP-1 cells, compound 10 μM, FIG. 5. The protocol:
To measure degradation of internalized TNFα, a pulse-chase experiment was performed whereby cells were treated with +/− example compounds and/or +/− protease inhibitors and incubated for 1 hr in media containing TNFα-biotin to allow uptake and then washed and incubated 90 minutes in fresh media without TNFα to allow degradation. Samples were collected after the pulse phase (60 min) and chase phase (90 min) to measure uptake and degradation, respectively.
THP-1 cells were seeded at 100,000 cells per well of 12 well plate with 1 mL RPMI+10% w/w FBS+1× penicillin/streptomycin and differentiated using 20 ng/mL phorbol myristate acetate (Sigma-Aldrich #P8139) for 72 hrs. After 72 hrs media was replaced with 1 ml RPMI+10% v/v FBS+1× penicillin/streptomycin and TNFα-biotin (AcroBiosystems #50-201-9879) was added to 12.5 nM final concentration. Where noted example compound was added at 10 μM final concentration and protease inhibitors were added at 100 ug/ml final concentration for leupeptin (Sigma-Aldrich #L2884) or 1 μg/ml final concentration for pepstatin A (Sigma-Aldrich #BP26715). […] Relative quantification of bands was performed using the ImageLab software (BioRad) with endogenously biotinylated proteins serving as endogenous controls. […]

The target in test [5] is T3, TNFα. The test can be described thus: Compound mediated depletion of HiBiT-TNFα from the medium of THP-1 cells. The following applies: compound 10 μM, FIG. 6. It is filed as cell-based. An excerpt:
An in-house recombinantly expressed and purified N-terminal fusion of HiBiT with TNFα was used to measure example compound-stimulated depletion from the media. HiBiT and largeBiT are split nanoluciferase polypeptides that result in complementation of luciferase activity in the presence of both polypeptides. The level of HiBit-TNFα in the media over time can be measure by sampling the media and mixing with the Nano-Glo HiBiT Extracellular Detection Reagent (Promega Corporation) containing the largeBiT polypeptide and nanoluciferase substrate.
THP-1 cells were seeded at 100,000 cells per well of 12 well plate with 1 mL RPMI+10% w/w FBS+1× penicillin/streptomycin and differentiated using 20 ng/mL phorbol myristate acetate (Sigma-Aldrich #P8139) for 72 hrs. After 72 hrs the growth medium was replaced with 1 ml RPMI+10% v/v FBS+1× penicillin/streptomycin containing 12.5 nM HiBit-TNFα. Where noted example compound was added at 10 μM final concentration. The medium was sampled (50 μl) at 0, 24, 48 and 96 hr and luciferase activity was measured using the Nano-Glo HiBiT Extracellular Detection Reagent.
On the technique in general: The HiBiT peptide binds its large partner to form an active luciferase.

The mark [6] stands for this setting: SPR single cycle kinetics, immobilized TNFα trimer.
The mark [7] stands for this setting: SPR single cycle kinetics, immobilized TNFα trimer, compound 937.5 nM-30 uM.

Read-outs that look alike come from different tables or passages of the source.

T1 sequence (P14207 17-230): as the sequence (P14207 17-230 limits assumed, species assumed) above

The term Kd denotes the equilibrium constant for the complex coming apart. Read a low Kd as a tighter complex. As to `Cc1nc2cc(F)c(-c3cnc(OCCCCCn4cc(COCCOCCOCCOCCNC(=O)[C@H](CCC(=O)O)NC(=O)c5ccc(NCc6cnc7nc(N)nc(O)c7n6)cc5)nn4)nc3)nc2c(N[C@H](C)c2cc(C#N)ccc2F)c1Cl` [Compound I-21, (S)-16-(4-(((2-amino-4-hydroxypteridin-6-yl)methyl)amino)benzamido)-1-(1-(5-((5-(7-chloro-8-(((R)-1-(5-cyano-2-fluorophenyl)ethyl)amino)-3-fluoro-6-methyl-1,5-naphthyridin-2-yl)pyrimidin-2-yl)oxy)pentyl)-1H-1,2,3-triazol-4-yl)-15-oxo-2,5,8,11-tetraoxa-14-azanonadecan-19-oic acid], the values for the Kd in test [1] and in test [2] (setting [6]) were 0.833 nM and 80.5 nM, respectively. Moreover, the kon came out at 5.57e+06 M⁻¹ s⁻¹ in test [1] (read-out: ka) and 963 M⁻¹ s⁻¹ in test [2] (setting [7]).
In turn, `Nc1nc(O)c2nc(CNc3ccc(C(=O)N[C@@H](CCC(=O)NCCOCCOCCOCCOCc4cn(CCCCCOc5ccc(-c6ccc7nc(COc8cccc(N9CCCC9=O)c8)n(Cc8ccccc8OC(F)F)c7c6)cn5)nn4)C(=O)O)cc3)cnc2n1` [Compound I-25, (S)-18-(4-(((2-amino-4-hydroxypteridin-6-yl)methyl)amino)benzamido)-1-(1-(5-((5-(1-(2-(difluoromethoxy)benzyl)-2-((3-(2-oxopyrrolidin-1-yl)phenoxy)methyl)-1H-benzo[d]imidazol-6-yl)pyridin-2-yl)oxy)pentyl)-1H-1,2,3-triazol-4-yl)-15-oxo-2,5,8,11-tetraoxa-14-azanonadecan-19-oic acid] registered a Kd in test [2] (setting [6]) of 4.18 nM. Besides, the kon in test [2] (setting [7]) worked out at 874 M⁻¹ s⁻¹.
For the compound `Cc1nc2cc(F)c(-c3cnc(OCCCCCn4cc(COCCOCCOCCOCCNC(=O)CC[C@H](NC(=O)c5ccc(NCc6cnc7nc(N)nc(O)c7n6)cc5)C(=O)O)nn4)nc3)nc2c(N[C@H](C)c2cc(C#N)ccc2F)c1Cl` [Compound I-17, (S)-18-(4-(((2-amino-4-hydroxypteridin-6-yl)methyl)amino)benzamido)-1-(1-(5-((5-(7-chloro-8-(((R)-1-(5-cyano-2-fluorophenyl)ethyl)amino)-3-fluoro-6-methyl-1,5-naphthyridin-2-yl)pyrimidin-2-yl)oxy)pentyl)-1H-1,2,3-triazol-4-yl)-15-oxo-2,5,8,11-tetraoxa-14-azanonadecan-19-oic acid], in test [3], the “uptake of labelled TNFα (median fluorescence intensity of pHrodo dye)” value is “stimulated uptake of labelled TNFα in THP-1 cells in a dose-dependent manner”. Also, the “degradation and rescue of TNFα” value in test [4] was “mediated degradation and rescue of TNFα”. Also, the “rate of depletion of HiBiT-TNFα from medium” value in test [5] (first 24 hours) is on record as “more rapid depletion of HiBiT-TNFα over the first 24 hours”. Besides, the “total depletion of HiBiT-TNFα from the culture medium” value in test [5] (sampled to 96 hr) is recorded as “greater total depletion of HiBiT-TNFα from the culture medium”.
Regarding `Cc1nc2cc(F)c(-c3cnc(OCCCCCn4cc(COCCOCCNC(=O)CC[C@H](NC(=O)c5ccc(NCc6cnc7nc(N)nc(O)c7n6)cc5)C(=O)O)nn4)nc3)nc2c(N[C@H](C)c2cc(C#N)ccc2F)c1Cl` [Compound I-16, N2-(4-(((2-amino-4-hydroxypteridin-6-yl)methyl)amino)benzoyl)-N5-(2-(2-((1-(5-((5-(7-chloro-8-(((R)-1-(5-cyano-2-fluorophenyl)ethyl)amino)-3-fluoro-6-methyl-1,5-naphthyridin-2-yl)pyrimidin-2-yl)oxy)pentyl)-1H-1,2,3-triazol-4-yl)methoxy)ethoxy)ethyl)-L-glutamine], in test [2] (FIGS. 2A-2C), the “binding mode from SPR sensorgrams” value is given as 1:1 binding. In test [2] (setting [6]), this compound returned a Kd of 50.2 nM, an Rmax of 43.7 RU and a kd of 5.81e-05 s⁻¹. The compound further displayed a Stoichiometry in test [2] (SPR, Rmax versus expected Rmax) of 0.7. In test [2], the kon turned out to be 1160 M⁻¹ s⁻¹.

Source of the values: US20240165250A1, “Bifunctional Folate Receptor Binding Compounds” (Lycia Therapeutics, Inc., priority 2021, published 2024).
